Tests used:
Assay type in all cases: cell-based, human
CD34+ HSPCs [1] = experiment: lentiviral-based pooled functional screen of i53 variant libraries at the HBB locus; NGS enrichment in mCherry+GFP+ vs mCherry+GFP- cells; conditions: MOI=2500
Procedure: CD34+ HSPC cells were transduced using lentivirus at MOIs of 0.25-1 at day 1 post thaw. Cells were concentrated using centrifugation (180 g×7 min), counted, and added at a concentration of 4×10^6 cells/mL to media containing lentivirus, cyclosporin A (5 μM, Sigma Aldrich) and Synperonic F108 (0.5 mg/mL, Sigma Aldrich). After 4 h of incubation, cells were spun down, washed once with media, and seeded into lentivirus-free media at a density of 3.5×10^5 cells/mL.
Chemically-modified single guide RNAs (sgRNAs) used to edit CD34+ HSPCs at the HBB locus were purchased from Synthego. […] Cells were collected, counted, and pelleted at 180 g×7 min. […]
Three days after transduction, cells were edited in triplicate or quadruplet at HBB as described above, using HBB-UBB-GFP donor AAV6 (MOI of 2.5×10^4 vector genomes/cell). […] The DNA concentration of each sample was measured using a Qubit 1×dsDNA BR assay kit (ThermoFisher).
An amplicon sequencing workflow was designed to sequence and quantify i53 variants within starting and post selection pools. […]
This approach was used to confirm sequence diversity in plasmid and lentiviral libraries prior to screening. For screening data analyses, a first quality control was performed on all runs to validate good values in number of mapped reads (>1e5 reads per sample), percent reads carried over from parent (from cloning), and overall distribution of sequences (no bias). […]

CD34+ HSPCs [2] = experiment: editing of CD34+ HSPCs with purified i53 variant proteins and HBB-UBC-GFP AAV donor; flow cytometry; conditions: HBB locus; protein 0.4 mg/mL; MOIs 625 and 2500; both donors
Procedure: Chemically-modified single guide RNAs (sgRNAs) used to edit CD34+ HSPCs at the HBB locus were purchased from Synthego. The sgRNA sequences were modified by adding 2′-O-methyl-3′-phosphorothioate at the three terminal nucleotides of the 5′ and 3′ ends. The target sequence for the HBB sgRNA is as follows: HBB: 5′[…]-3′ (SEQ ID NO: 74). Cas9 protein (SpyFi Cas9) was purchased from Aldevron. The RNPs were complexed at a Cas9:sgRNA molar ratio of 1:2.5 at 25° C. for 10-15 min prior to electroporation. Cells were collected, counted, and pelleted at 180 g×7 min. The cell pellets were resuspended in Maxcyte buffer with complexed RNPs and electroporated using a Maxcyte EXPERT ATx Nucleofector. After electroporation cells were plated at 3.5×10^5 cells/mL in media supplemented with cytokines and the desired AAV donor added at 5.0×10^2-2.5×10^4 vector genomes/cell. 24 h after nucleofection, cells were spun down, washed once with media, and seeded into AAV-free media at a density of 3.5×10^5 cells/mL.
CD34+ HPSCs were edited with protein variants 3 days post thaw and were harvested 2 days post nucleofection for NGS analysis or 3-5 days post nucleofection for GFP expression analysis. Editing reactions with proteins at a given concentration were repeated in duplicate or triplicate (either using the same CD34+ HSPC donor or across multiple donors).
Rates of targeted integration of the HBB UBC GFP donor were measured using a Beckman Coulter CytoFLEX. DAPI (Miltenyi Biotec) was used to discriminate live and dead cells. Flow cytometry data were analyzed using FlowJo 10 software.

CD34+ HSPCs [3] = experiment: GFP knock-in at the HBA locus with purified i53 variants and HBA-UBC-GFP AAV; flow cytometry; conditions: HBA locus; protein 0.4 mg/mL; MOIs 625 and 2500; both donors
Description: (§1) Chemically-modified single guide RNAs (sgRNAs) were used to edit CD34+ HSPCs at the HBA, CCR5, and IL2RG loci. The sgRNA sequences were modified by adding 2′-O-methyl-3′-phosphorothioate at the three terminal nucleotides of the 5′ and 3′ ends. The target sequences for the HBA, CCR5, and IL2RG sgRNA are as follows: HBA: 5′-[…]-3′ (SEQ ID NO: 78), CCR5: 5′-[…]-3′ (SEQ ID NO: 79) IL2RG: 5′-[…]-3′ (SEQ ID NO: 80). Cas9 protein (SpyFi Cas9) was purchased from Aldevron. The RNPs were complexed at a Cas9:sgRNA molar ratio of 1:2.5 at 25° C. for 10-15 min prior to electroporation. Cells were collected, counted, and pelleted at 180 g×7 min. The cell pellets were resuspended in Maxcyte buffer with complexed RNPs and electroporated using a Maxcyte EXPERT ATx Nucleofector. After electroporation cells were plated at 3.5×10^5 cells/mL in media supplemented with cytokines and the desired AAV donor added at 5.0×10^2-2.5×10^4 vector genomes/cell. 24 h after nucleofection, cells were spun down, washed once with media, and seeded into AAV-free media at a density of 3.5×10^5 cells/mL. […]
(§2) Rates of targeted integration of the HBA-UBC-GFP, CCR5-UBC-GFP, and IL2RG-UBC-GFP donors were measured using a Beckman Coulter CytoFLEX. […] Flow cytometry data were analyzed using FlowJo 10 software.

CD34+ HSPCs [4] = experiment: GFP knock-in at the CCR5 locus with purified i53 variants and CCR5-UBC-GFP AAV; flow cytometry; conditions: CCR5 locus; protein 0.4 mg/mL; MOIs 625 and 2500; both donors
Description: as §1, §2

CD34+ HSPCs [5] = experiment: GFP knock-in at the IL2RG locus with purified i53 variants and IL2RG-UBC-GFP AAV; flow cytometry; conditions: protein 0.4 mg/mL, MOIs 625 and 2500, both donors
Description: as §1, §2

| Substance | differential variant enrichment in the mCherry+GFP+ population relative to parent L67R (CD34+ HSPCs [1]; combinatorial library at positions 12 and 14, parent L67R) | % GFP incorporation relative to the no protein control (CD34+ HSPCs [2]) | % GFP incorporation relative to the no protein control (CD34+ HSPCs [3]) | % GFP incorporation relative to the no protein control (CD34+ HSPCs [4]) | % GFP incorporation relative to the no protein control (CD34+ HSPCs [5]) | differential variant enrichment in the mCherry+GFP+ population relative to parent L67H (CD34+ HSPCs [1]; combinatorial library at positions 12 and 14, iterating on L67H) |
| --- | --- | --- | --- | --- | --- | --- |
| T12Y.T14E.L67R: purified hit mutant of i53 | particularly beneficial to HDR levels at HBB relative to parent T12 T14 L67R | increase % GFP incorporation relative to the no protein control | increase % GFP incorporation relative to the no protein control | increase % GFP incorporation relative to the no protein control | increase % GFP incorporation relative to the no protein control |  |
| T12V.T14H.L67H: purified hit mutant of i53 |  | increase % GFP incorporation relative to the no protein control | increase % GFP incorporation relative to the no protein control | increase % GFP incorporation relative to the no protein control | increase % GFP incorporation relative to the no protein control | emerged as hits relative to parent L67H |
